The structures appear in SMILES notation. pIC50: −log10 of the molar value.

The results in this text go back to patent publication US20250145589A1, “PYRIDINE DERIVATIVE AND USE THEREOF” (SICHUAN HUIYU PHARMACEUTICAL CO., LTD., priority 2021, published 2025).

The subject of assay [1] is MIA PaCa-2 cells (KRAS G12C mutant). In words: MIA PaCa-2 cell anti-proliferation (CellTiter-Glo). In kind it is cell-based. The conditions noted are these: Homo sapiens, 72 h; MIA Paca-2 cells, 3 days, Table 7; read-out: MIA PaCa-2 (IC50). A digest of the protocol: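 Viable-cell luminescence (CellTiter-Glo, ≥30 min at 25 °C) measured after a 3-day, 37 °C exposure to compounds at 9 points, 4-fold spaced, in DMEM containing 10% FBS plus 2.5% horse serum. IC50 derived versus no-inhibitor wells.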

Assay [2] has as its system NCI-H358-AMGR drug-resistant cell line. The assay is described as follows: NCI-H358-AMGR drug-resistant cell proliferation inhibitory activity test. Type of assay: cell-based. To be noted: 72 h; NCI-H358-AMGR drug-resistant cells, 3 days incubation, CellTiter-Glo. Summed up:
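Luminescent CellTiter-Glo read-out after 3-day, 37° C compound exposure (8 points, 5-fold series) of AMG510-resistant NCI-H358 cells plated at 4×10^3 per well.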

The target in another assay is PI3Kα (Homo sapiens (Human), UniProt P42336). In words: Inhibition of PI3Kα efficacy assay (ADP-Glo kinase assay). The conditions noted are these: Table 4; read-out: PI3Kα inhibitory activity (IC50). In kind it is biochemical. Summed up:
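ADP-Glo luminescent detection of ADP from PI3Kα acting on PI substrate with ATP, 60 min at RT; compounds in 8-point five-fold serial dilution from 2 mM DMSO stock. IC50 from four-parameter variable-slope fit.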

In another assay the target is KRAS^G12C-SOS1 (Homo sapiens (Human), UniProt P01116, G12C). In words: HTRF KRAS G12C/SOS1 binding assay. To be noted: Table 5. A digest of the protocol:
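Compound was serially diluted five-fold over eight points, with a 2 mM DMSO stock. After anti-tag-Tb3+ and anti-tag-XL665 were added, plates were incubated 3 h at 4 °C and read by HTRF (ex 337 nm, em 620/665 nm ratio). IC50 values come from four-parameter variable-slope fits.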

For another assay, the target named is PI3Kδ (Homo sapiens (Human), UniProt O00329). The assay is described as follows: Inhibition of PI3Kδ efficacy assay (ADP-Glo kinase assay). In kind it is biochemical. The conditions noted are these: Table 4; read-out: PI3Kδ inhibitory activity (IC50). A digest of the protocol:
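Luminescent ADP-Glo readout of PI3Kδ: after a 60 min RT reaction with PI/ATP substrate, ATP depletion (40 min) and ADP detection (40 min) steps followed. Compounds tested as eight five-fold serial dilutions; inhibition rates fitted to log(inhibitor) vs. response, variable slope, for IC50.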

Chain of PI3Kδ (O00329 whole entry): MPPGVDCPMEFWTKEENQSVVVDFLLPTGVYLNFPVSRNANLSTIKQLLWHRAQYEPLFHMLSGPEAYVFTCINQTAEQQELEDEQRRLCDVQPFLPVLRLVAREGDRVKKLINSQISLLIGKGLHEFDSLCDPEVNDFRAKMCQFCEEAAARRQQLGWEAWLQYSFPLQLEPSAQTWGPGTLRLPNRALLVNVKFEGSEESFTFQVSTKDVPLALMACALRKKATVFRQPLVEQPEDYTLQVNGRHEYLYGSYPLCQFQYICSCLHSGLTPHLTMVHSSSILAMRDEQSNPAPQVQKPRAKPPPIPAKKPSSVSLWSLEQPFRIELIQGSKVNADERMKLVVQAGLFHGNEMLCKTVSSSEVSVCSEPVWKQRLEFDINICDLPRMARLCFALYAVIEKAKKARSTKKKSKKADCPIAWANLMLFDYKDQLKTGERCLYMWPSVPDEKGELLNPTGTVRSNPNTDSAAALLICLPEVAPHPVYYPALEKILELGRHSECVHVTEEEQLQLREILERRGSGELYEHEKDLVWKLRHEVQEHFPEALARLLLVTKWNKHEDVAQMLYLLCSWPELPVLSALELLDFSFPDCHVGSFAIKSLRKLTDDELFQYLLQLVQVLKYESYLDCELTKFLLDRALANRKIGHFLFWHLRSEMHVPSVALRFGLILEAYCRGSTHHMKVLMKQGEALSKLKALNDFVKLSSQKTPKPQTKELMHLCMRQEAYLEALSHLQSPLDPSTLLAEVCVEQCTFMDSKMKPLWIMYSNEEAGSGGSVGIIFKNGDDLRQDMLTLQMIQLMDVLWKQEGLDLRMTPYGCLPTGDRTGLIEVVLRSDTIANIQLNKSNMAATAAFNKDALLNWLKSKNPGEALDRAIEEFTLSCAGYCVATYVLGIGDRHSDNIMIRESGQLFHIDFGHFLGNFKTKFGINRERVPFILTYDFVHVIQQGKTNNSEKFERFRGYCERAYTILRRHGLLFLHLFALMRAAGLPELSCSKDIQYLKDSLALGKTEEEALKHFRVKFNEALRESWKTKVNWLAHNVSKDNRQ
Chain of PI3Kδ (P27986 whole entry partner): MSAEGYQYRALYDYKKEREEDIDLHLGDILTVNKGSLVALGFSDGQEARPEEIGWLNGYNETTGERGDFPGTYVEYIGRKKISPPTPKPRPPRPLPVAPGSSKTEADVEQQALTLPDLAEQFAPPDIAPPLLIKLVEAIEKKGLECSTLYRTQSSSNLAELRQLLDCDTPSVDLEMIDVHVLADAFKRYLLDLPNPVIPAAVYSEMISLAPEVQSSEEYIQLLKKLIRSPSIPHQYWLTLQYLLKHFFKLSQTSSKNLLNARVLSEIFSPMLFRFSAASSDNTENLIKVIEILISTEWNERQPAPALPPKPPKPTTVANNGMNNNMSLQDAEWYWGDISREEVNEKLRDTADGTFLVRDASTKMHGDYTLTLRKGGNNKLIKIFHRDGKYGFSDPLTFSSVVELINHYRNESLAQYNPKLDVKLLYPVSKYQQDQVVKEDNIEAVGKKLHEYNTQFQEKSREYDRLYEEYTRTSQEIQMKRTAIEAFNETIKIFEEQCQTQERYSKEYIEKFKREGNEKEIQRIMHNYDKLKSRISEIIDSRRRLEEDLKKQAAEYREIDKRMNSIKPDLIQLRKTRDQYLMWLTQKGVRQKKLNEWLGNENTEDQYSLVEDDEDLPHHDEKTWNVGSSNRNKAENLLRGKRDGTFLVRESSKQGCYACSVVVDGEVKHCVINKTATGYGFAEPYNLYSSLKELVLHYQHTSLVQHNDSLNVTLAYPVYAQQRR
Chain of PI3Kα (P42336 whole entry): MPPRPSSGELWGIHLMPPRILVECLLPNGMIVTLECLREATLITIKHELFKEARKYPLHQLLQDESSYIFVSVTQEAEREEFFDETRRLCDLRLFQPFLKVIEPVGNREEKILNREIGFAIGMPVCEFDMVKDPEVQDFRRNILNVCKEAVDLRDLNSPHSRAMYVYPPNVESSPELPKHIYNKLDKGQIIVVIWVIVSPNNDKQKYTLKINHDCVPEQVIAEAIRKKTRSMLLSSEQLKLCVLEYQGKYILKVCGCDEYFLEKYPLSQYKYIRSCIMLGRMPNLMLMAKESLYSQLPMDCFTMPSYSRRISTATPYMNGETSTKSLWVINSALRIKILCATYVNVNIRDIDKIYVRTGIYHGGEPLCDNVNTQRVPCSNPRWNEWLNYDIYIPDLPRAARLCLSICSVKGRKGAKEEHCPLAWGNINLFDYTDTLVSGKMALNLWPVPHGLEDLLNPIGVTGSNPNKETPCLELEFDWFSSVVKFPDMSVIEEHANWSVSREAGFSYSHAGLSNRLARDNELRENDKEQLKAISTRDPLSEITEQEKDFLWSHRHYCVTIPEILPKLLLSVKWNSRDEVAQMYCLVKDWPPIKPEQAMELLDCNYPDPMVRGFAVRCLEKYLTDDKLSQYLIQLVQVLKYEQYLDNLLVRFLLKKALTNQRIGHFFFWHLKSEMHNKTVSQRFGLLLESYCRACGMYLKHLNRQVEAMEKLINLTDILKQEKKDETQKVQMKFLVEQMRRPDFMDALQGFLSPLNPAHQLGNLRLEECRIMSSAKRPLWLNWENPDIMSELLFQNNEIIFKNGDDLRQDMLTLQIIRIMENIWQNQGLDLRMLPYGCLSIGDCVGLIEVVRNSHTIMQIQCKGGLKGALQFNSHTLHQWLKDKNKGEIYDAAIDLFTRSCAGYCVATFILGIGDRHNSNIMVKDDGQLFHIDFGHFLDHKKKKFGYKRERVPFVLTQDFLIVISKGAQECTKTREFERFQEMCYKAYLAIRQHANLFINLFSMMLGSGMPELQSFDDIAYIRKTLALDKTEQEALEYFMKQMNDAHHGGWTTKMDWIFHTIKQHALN
Chain of PI3Kα (P27986 whole entry partner): as the sequence (P27986 whole entry partner) above
Chain of KRAS^G12C-SOS1 (P01116-2 other isoform, or with tags, fused parts or gaps G12C): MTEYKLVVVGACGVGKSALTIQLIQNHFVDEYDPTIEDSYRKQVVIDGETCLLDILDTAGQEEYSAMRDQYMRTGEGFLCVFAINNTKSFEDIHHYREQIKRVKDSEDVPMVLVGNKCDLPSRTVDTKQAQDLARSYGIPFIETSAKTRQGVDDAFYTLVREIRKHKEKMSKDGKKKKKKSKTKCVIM

Turning to `COc1ccc(Cl)c(S(=O)(=O)Nc2cc(-c3ccc4ncnc(N5CCN(C(=O)/C=C/C(C)=O)CC5)c4c3)cnc2OC)c1` [Example 184, (E)-2-chloro-5-methoxy-N-(2-methoxy-5-(4-(4-(4-oxopent-2-enoyl)piperazin-1-yl)quinazolin-6-yl)pyridin-3-yl)benzene-sulfonamide], the pIC50 in assay [1] was 7.22; in assay [2], 6.87; on PI3Kα it was 9.09; on KRAS^G12C-SOS1 it was 6.44; at PI3Kδ, 7.79.

As for `COc1ncc(-c2ccc3ncnc(C4=CCN(C(=O)/C=C/C(C)=O)CC4)c3c2)cc1NS(=O)(=O)c1ccc(F)cc1F` [Example 198, (E)-2,4-difluoro-N-(2-methoxy-5-(4-(1-(4-oxopent-2-enoyl)-1,2,3,6-tetrahydropyridin-4-yl)quinazolin-6-yl)pyridin-3-yl)benzenesulfonamide], the pIC50 was 8.06 in assay [1]; 7.66 in assay [2]; 8.96 at PI3Kα; 6.87 at KRAS^G12C-SOS1; 7.88 on PI3Kδ.

Turning to `COc1ncc(-c2ccc3ncnc(C4=CCN(C(=O)/C=C/C(C)=O)CC4)c3c2)cc1NS(=O)(=O)c1sc(C)nc1C` [Example 199, (E)-N-(2-methoxy-5-(4-(1-(4-oxopent-2-enoyl)-1,2,3,6-tetrahydropyridin-4-yl)quinazolin-6-yl)pyridin-3-yl)-2,4-dimethylthiazole-5-sulfonamide], the pIC50 is 7.39 in assay [1]; 7.66 in assay [2]; 8.82 on PI3Kα; 6.75 at KRAS^G12C-SOS1; 7.92 on PI3Kδ.

Regarding `COc1ncc(-c2ccc3ncnc(C4=CCN(C(=O)/C=C/C(C)=O)CC4)c3c2)cc1NS(=O)(=O)c1ccccc1F` [Example 200, (E)-2-fluoro-N-(2-methoxy-5-(4-(1-(4-oxopent-2-enoyl)-1,2,3,6-tetrahydropyridin-4-yl)quinazolin-6-yl)pyridin-3-yl)benzene-sulfonamide], the pIC50 was 7.39 in assay [1]; 8.19 in assay [2]; 8.64 on PI3Kα; 6.88 on KRAS^G12C-SOS1; 8.01 on PI3Kδ.

Take `COc1ncc(-c2ccc3ncnc(C4=CCN(C(=O)/C=C/C(C)=O)CC4)c3c2)cc1NS(=O)(=O)c1c(F)cccc1F` [Example 201, (E)-2,6-difluoro-N-(2-methoxy-5-(4-(1-(4-oxopent-2-enoyl)-1,2,3,6-tetrahydropyridin-4-yl)quinazolin-6-yl)pyridin-3-yl)benzenesulfonamide]: the pIC50 in assay [1] was 7.50; in assay [2] it was 8.28; on PI3Kα, 8.42; on KRAS^G12C-SOS1 it was 6.85; at PI3Kδ it was 7.93.

On to `COc1ncc(-c2ccc3ncnc(C4=CCN(C(=O)/C=C/C(C)=O)CC4)c3c2)cc1NS(=O)(=O)c1c(F)cccc1Cl` [Example 202, (E)-2-chloro-6-fluoro-N-(2-methoxy-5-(4-(1-(4-oxopent-2-enoyl)-1,2,3,6-tetrahydropyridin-4-yl)quinazolin-6-yl)pyridin-3-yl)benzene-sulfonamide], for which the pIC50 was 7.94 in assay [1]; 8.02 in assay [2]; 8.72 on PI3Kα; 6.85 at KRAS^G12C-SOS1; 7.55 on PI3Kδ.

For `COc1ncc(-c2ccc3ncnc(C4CCN(C(=O)/C=C/C(C)=O)CC4)c3c2)cc1NS(=O)(=O)c1sc(C)nc1C` [Example 203, (E)-N-(2-methoxy-5-(4-(1-(4-oxopent-2-enoyl)piperidin-4-yl)quinazolin-6-yl)pyridin-3-yl)-2,4-dimethylthiazole-5-sulfonamide], the pIC50 in assay [1] was 7.29; in assay [2], 8.27; on PI3Kα, 8.62; on KRAS^G12C-SOS1, 6.38; on PI3Kδ it was 7.98.

Take `COc1ncc(-c2ccc3ncnc(C4CCN(C(=O)/C=C/C(C)=O)CC4)c3c2)cc1NS(=O)(=O)c1ccccc1F` [Example 204, (E)-2-fluoro-N-(2-methoxy-5-(4-(1-(4-oxopent-2-enoyl)piperidin-4-yl)quinazolin-6-yl)pyridin-3-yl)benzenesulfonamide]: the pIC50 in assay [1] was 6.94; in assay [2] it was 7.33; on PI3Kα, 8.48; at KRAS^G12C-SOS1, 6.51; at PI3Kδ it was 7.77.

Regarding `COc1ncc(-c2ccc3ncnc(C4CCN(C(=O)/C=C/C(C)=O)CC4)c3c2)cc1NS(=O)(=O)c1c(F)cccc1F` [Example 205, (E)-2,6-difluoro-N-(2-methoxy-5-(4-(1-(4-oxopent-2-enoyl)piperidin-4-yl)quinazolin-6-yl)pyridin-3-yl) benzenesulfonamide], the pIC50 was 7.10 in assay [1]; 7.82 in assay [2]; 8.89 at PI3Kα; 6.43 on KRAS^G12C-SOS1; 8.05 on PI3Kδ.

For `COc1ncc(-c2ccc3ncnc(C4CCN(C(=O)/C=C/C(C)=O)CC4)c3c2)cc1NS(=O)(=O)c1c(F)cccc1Cl` [Example 206, (E)-2-chloro-6-fluoro-N-(2-methoxy-5-(4-(1-(4-oxopent-2-enoyl)piperidin-4-yl)quinazolin-6-yl)pyridin-3-yl) benzenesulfonamide], the negative logarithm of the IC50 (pIC50) was 7.68 in assay [1]; 8.02 in assay [2]; 8.41 on PI3Kα; 6.73 on KRAS^G12C-SOS1; 7.82 at PI3Kδ.

As to `COc1ncc(-c2ccc3ncnc(N4CCN(C(=O)/C=C/C(C)=O)CC4)c3n2)cc1NS(=O)(=O)c1c(F)cncc1F` [Example 210, (E)-3,5-difluoro-N-(2-methoxy-5-(4-(4-(4-oxopent-2-enoyl)piperazin-1-yl)pyrido[3,2-d]pyrimidin-6-yl)pyridin-3-yl)pyridine-4-sulfonamide], the pIC50 in assay [1] is 7.32; in assay [2], 6.54; at PI3Kα, 9.27; on KRAS^G12C-SOS1, 6.88; on PI3Kδ, 8.23.

With `COc1ncc(-c2ccc3ncnc(N4CCN(C(=O)/C=C/C(C)=O)CC4)c3n2)cc1NS(=O)(=O)c1cc(F)ccc1F` [Example 217, (E)-2,5-difluoro-N-(2-methoxy-5-(4-(4-(4-oxopent-2-enoyl)piperazin-1-yl)pyrido[3,2-d]pyrimidin-6-yl)pyridin-3-yl) benzene-sulfonamide], the pIC50 in assay [1] was 7.68; in assay [2], 7.49; on PI3Kα, 9.39; at KRAS^G12C-SOS1, 6.68; on PI3Kδ it was 7.97.

On to `COc1ncc(-c2ccc3ncnc(N4CCN(C(=O)/C=C/C(C)=O)CC4)c3n2)cc1NS(=O)(=O)c1cccc(F)c1F` [Example 218, (E)-2,3-difluoro-N-(2-methoxy-5-(4-(4-(4-oxopent-2-enoyl)piperazin-1-yl)pyrido[3,2-d]pyrimidin-6-yl)pyridin-3-yl) benzene-sulfonamide], for which the negative-log IC50 (pIC50) in assay [1] is 7.67; in assay [2], 7.87; at PI3Kα, 8.59; at KRAS^G12C-SOS1, 6.53; on PI3Kδ, 7.97.

Regarding `COc1ncc(-c2ccc3ncnc(N4CCN(C(=O)/C=C/C(C)=O)CC4)c3n2)cc1NS(=O)(=O)c1c(F)cc(F)cc1F` [Example 219, (E)-2,4-trifluoro-N-(2-methoxy-5-(4-(4-(4-oxopent-2-enoyl)piperazin-1-yl)pyrido[3,2-d]pyrimidin-6-yl)pyridin-3-yl) benzene-sulfonamide], the negative-log IC50 (pIC50) is 8.24 in assay [1]; 7.80 in assay [2]; 9.04 on PI3Kα; 6.82 on KRAS^G12C-SOS1; 7.94 on PI3Kδ.
